Experimental data as given in patent US6620828B2, “Thiazole compounds and pharmaceutical compositions for inhibiting protein kinases and methods for their use” (Agouron Pharmaceuticals, Inc., priority 1999, dated 2003).

How the values were obtained:
Assay type in all cases: biochemical
[1] = target: T1, phosphorylated VEGF-R2Δ50 (FLVK-P) (Homo sapiens, UniProt P35968, DEL940-989/E990V); assay: VEGF-R2 coupled spectrophotometric (FLVK-P) assay; conditions: combinatorial library compounds; for inhibition at 20 µM: read-out: VEGF % inhibition at 20 μM, 20 μM
T1 construct: VEGF-R2Δ50 contains residues 806-939 and 990-1171; made in house; host or cells: baculovirus/insect cells
In short: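 Baculovirus-expressed human VEGF-R2Δ50 (residues 806-939/990-1171, E990V) was autophosphorylated with 3 mM ATP, 40 mM MgCl2 for 2 h at 4° C. ADP formation was coupled via PK/LDH to NADH oxidation, read at 340 nm, with 5.1 mM poly(E4Y1), 1 mM ATP, 25 mM MgCl2, Hepes pH 7.5. Ki came from activity across compound concentrations.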

CDK2/Cyclin A complex = CDK2/Cyclin A complex (Homo sapiens, UniProt P24941); assay: CDK2/Cyclin A assay
Text: CDK2/Cyclin A Construct for Assay: CDK2 was purified using published methodology (Rosenblatt et al., J. Mol. Biol., 230, 1317-1319 (1993)) from insect cells that had been infected with a baculovirus expression vector. Cyclin A was purified from E. coli cells expressing full-length recombinant cyclin A, and a truncated cyclin A construct was generated by limited proteolysis and purified as described previously (Jeffrey et al., Nature, 376, 313-320 (Jul. 27, 1995)).
(§1) CDK2/Cyclin A and CDK4/Cyclin D Assays
(§2) Cyclin-dependent kinase activity was measured by quantifying the enzyme-catalyzed, time-dependent incorporation of radioactive phosphate from [^32P]ATP into a recombinant fragment of the retinoblastoma protein. Unless noted otherwise, assays were performed in 96-well plates in a total volume of 50 μL, in the presence of 10 mM HEPES (N-[2-hydroxyethyl]piperazine-N′-[2-ethanesulfonic acid]) (pH 7.4), 10 mM MgCl2, 25 μM adenosine triphosphate (ATP), 1 mg/mL ovalbumin, 5 μg/mL leupeptin, 1 mM dithiothreitol, 10 mM β-glycerophosphate, 0.1 mM sodium vanadate, 1 mM sodium fluoride, 2.5 mM ethylene glycol-bis(β-aminoethyl ether)-N,N,N′N′-tetraacetic acid (EGTA), 2% (v/v) dimethylsulfoxide, and 0.03-0.2 μCi [^32P]ATP. The substrate (0.3-0.5 μg) was purified recombinant retinoblastoma protein fragment (Rb) (residues 386-928 of the native retinoblastoma protein; 62.3 kDa, containing the majority of the phosphorylation sites found in the native 106-kDa protein, as well as a tag of six histidine residues for ease of purification). Reactions were initiated with CDK2 (150 nM CDK2/Cyclin A complex) or CDK4 (50 nM CDK4/Cyclin D3 complex), incubated at 30° C., and terminated after 20 minutes by the addition of ethylenediaminetetraacetic acid EDTA) to 250 mM. The phosphorylated substrate was then captured on a nitrocellulose membrane using a 96-well filtration manifold, and unincorporated radioactivity was removed by repeated washing with 0.85% phosphoric acid. Radioactivity was quantified by exposing the dried nitrocellulose membranes to a phosphorimager. Apparent Ki values were measured by assaying enzyme activity in the presence of different compound concentrations and subtracting the background radioactivity measured in the absence of enzyme. The kinetic parameters (kcat, Km for ATP) were measured for each enzyme under the usual assay conditions by determining the dependence of initial rates on ATP concentration. The data were fit to an equation for competitive inhibition using Kaleidagraph (Synergy Software), or were fit to an equation for competitive tight-binding inhibition using the software KineTic (BioKin, Ltd.). Measured Ki values for known inhibitors against CDK4 and CDK2 agreed with published IC50 values. The specific activity of CDK4 was the same whether complexed to full-length cyclin D3 or the truncated Cyclin D3 construct; both complexes also yielded very similar Ki values for selected inhibitors.

CDK4/Cyclin D3 complex = target: T2, CDK4/Cyclin D3 complex (Homo sapiens, UniProt P11802); assay: CDK4/Cyclin D assay
T2 construct: made in house; host or cells: insect cells co-infected with baculovirus vectors
Procedure: CDK4/Cyclin D Construct for Assay: A complex of human CDK4 and cyclin D3, or a complex of cyclin DI and a fusion protein of human CDK4 and glutathione-S-transferase (GST-CDK4), was purified using traditional biochemical chromatographic techniques from insect cells that had been co-infected with the corresponding baculovirus expression vectors.
as §1, §2

FL-CHK1 = target: T3, FL-CHK1 (Homo sapiens, UniProt O14757); assay: CHK1 assay; conditions: 20 μM; combinatorial library compounds
T3 construct: C-terminally His-tagged full-length human CHK1 (FL-CHK1); 6xHis (C); made in house; host or cells: baculovirus/insect cells
T3 sequence (O14757 1-476): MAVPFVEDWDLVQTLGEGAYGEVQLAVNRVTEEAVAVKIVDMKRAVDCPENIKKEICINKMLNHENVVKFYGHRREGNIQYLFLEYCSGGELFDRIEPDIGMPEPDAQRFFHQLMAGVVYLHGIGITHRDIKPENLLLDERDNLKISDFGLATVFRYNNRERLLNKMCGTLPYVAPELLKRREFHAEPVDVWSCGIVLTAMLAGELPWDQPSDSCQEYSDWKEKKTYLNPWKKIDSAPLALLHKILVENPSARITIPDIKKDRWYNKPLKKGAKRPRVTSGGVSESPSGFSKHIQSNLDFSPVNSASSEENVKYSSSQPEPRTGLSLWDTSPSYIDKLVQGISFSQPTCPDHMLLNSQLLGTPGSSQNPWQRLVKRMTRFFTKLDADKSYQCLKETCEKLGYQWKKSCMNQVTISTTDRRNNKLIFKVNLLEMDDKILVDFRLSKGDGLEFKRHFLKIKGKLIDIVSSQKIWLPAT
Text: CHK-1 Construct for Assay: C-terminally His-tagged full-length human CHK1 (FL-CHK1) was expressed using the baculovirus/insect cell system. It contains 6 histidine residues (6×His-tag) at the C-terminus of the 476 amino acid human CHK1. The protein was purified by conventional chromatographic techniques.
The production of ADP from ATP that accompanies phosphoryl transfer to the synthetic substrate peptide Syntide-2 ([…]) was coupled to oxidation of NADH using phosphoenolpyruvate (PEP) through the actions of pyruvate kinase (PK) and lactic dehydrogenase (LDH). The oxidation of NADH was monitored by following the decrease of absorbance at 340 nm (ε340=6.22 cm^−1 mM^−1) using a HP8452 spectrophotometer. Typical reaction solutions contained: […]; 0.15 mM NADH; 28 units of LDH/ml; 16 units of PK/ml; 3 mM DTT; 0.125 mM Syntide-2; 0.15 mM ATP; 25 mM MgCl2 in 50 mM TRIS, pH 7.5; and 400 mM NaCl. Assays were initiated with 10 nM of FL-CHK1. Ki values were determined by measuring initial enzyme activity in the presence of varying concentrations of test compounds. The data were analyzed using Enzyme Kinetic and Kaleidagraph software.

[2] = 1.0 μM, combinatorial library compounds

T1 sequence (P35968 with tags, fused parts or gaps DEL940-989/E990V limits assumed): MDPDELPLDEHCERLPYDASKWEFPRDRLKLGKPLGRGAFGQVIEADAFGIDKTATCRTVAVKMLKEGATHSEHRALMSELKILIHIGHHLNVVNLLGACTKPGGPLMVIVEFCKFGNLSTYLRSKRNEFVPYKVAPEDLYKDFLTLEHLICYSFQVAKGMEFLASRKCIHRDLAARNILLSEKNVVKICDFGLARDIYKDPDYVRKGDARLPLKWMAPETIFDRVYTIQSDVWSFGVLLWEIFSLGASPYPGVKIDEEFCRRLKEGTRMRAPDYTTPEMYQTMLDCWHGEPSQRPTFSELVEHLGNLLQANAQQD
T2 sequence (P11802 whole entry): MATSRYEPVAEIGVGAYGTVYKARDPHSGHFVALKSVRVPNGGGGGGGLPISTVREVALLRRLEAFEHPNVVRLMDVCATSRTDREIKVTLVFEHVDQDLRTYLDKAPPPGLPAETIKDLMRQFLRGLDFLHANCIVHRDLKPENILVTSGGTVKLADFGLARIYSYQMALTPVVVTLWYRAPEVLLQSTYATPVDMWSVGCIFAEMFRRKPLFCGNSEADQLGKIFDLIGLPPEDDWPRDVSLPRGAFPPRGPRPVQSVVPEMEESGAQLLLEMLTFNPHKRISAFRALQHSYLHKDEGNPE
T2 sequence (P30281 whole entry partner): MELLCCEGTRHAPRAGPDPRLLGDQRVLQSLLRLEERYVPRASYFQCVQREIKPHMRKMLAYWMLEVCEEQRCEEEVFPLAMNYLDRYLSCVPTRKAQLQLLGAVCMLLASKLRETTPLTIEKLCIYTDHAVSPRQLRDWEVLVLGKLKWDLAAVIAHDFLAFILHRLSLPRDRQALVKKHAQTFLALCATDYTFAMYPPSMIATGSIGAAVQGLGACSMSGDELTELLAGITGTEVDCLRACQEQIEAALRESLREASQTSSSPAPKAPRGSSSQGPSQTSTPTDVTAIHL

inhibition at 20 µM [1] [%]	inhibition at 1 µM (CDK2/Cyclin A complex; [2]) [%]	inhibition at 1 µM (CDK4/Cyclin D3 complex; [2]) [%]	inhibition at 20 µM (FL-CHK1) [%]	Ki (CDK2/Cyclin A complex; Table 2) [nM]	Structure (SMILES)	also measured
13	6.2	61.4	6.5	–	CCc1cc2c(cc1-c1csc(-c3sc(Nc4ccc(C(C)C)cc4)nc3N)n1)C(C)(C)CCC2(C)C	–
9	1.3	-3.1	11.7	–	Nc1nc(Nc2ccc(S(N)(=O)=O)cc2)sc1-c1nc(-c2ccc(Cl)c(Cl)c2)cs1	–
3	9.2	-0.3	5.6	–	Cc1c(-c2csc(-c3sc(Nc4ccc(S(N)(=O)=O)cc4)nc3N)n2)sc2ccccc12	–
-9	9.6	0.7	3.2	–	CC(C)c1ccc(Nc2nc(N)c(-c3nc(-c4ccc(-c5ccccc5)cc4)cs3)s2)cc1	–
22	23.5	57.7	12.6	–	CN(C)c1ccc(Nc2nc(N)c(-c3nc(-c4csc5ccccc45)cs3)s2)cc1	–
32	24	64.1	43.9	–	Cc1cc(-c2csc(-c3sc(Nc4ccc(N(C)C)cc4)nc3N)n2)c(C)s1	–
12	25.5	-8.9	7.8	–	Nc1nc(Nc2ccc(S(N)(=O)=O)cc2)sc1-c1nc(-c2ccc3ccccc3c2)cs1	–
16	5	56.5	40.8	–	CN(C)c1ccc(Nc2nc(N)c(-c3nc(-c4ccc5c(c4)OCCO5)cs3)s2)cc1	–
5	26.9	45.5	19.6	–	CN(C)c1ccc(Nc2nc(N)c(-c3nc(-c4ccc5ccccc5c4)cs3)s2)cc1	–
59	39.9	84.7	34.9	–	Cc1c(C)c(C)c(-c2csc(-c3sc(Nc4ccc(C(C)C)cc4)nc3N)n2)c(C)c1C	–
–	–	–	6.9	–	COc1ccc(-c2csc(-c3sc(Nc4ccc(S(N)(=O)=O)cc4)nc3N)n2)cc1 [drawing 399]	VEGF % inhibition at 20 μM ([1]; 20 μM): 48%; CDK2 % Inhibition at 1.0 μM (CDK2/Cyclin A complex; [2]): 10.7%; CDK4 % Inhibition at 1.0 μM (CDK4/Cyclin D3 complex; [2]): 9.3%
-5	16.1	-31.3	0.5	–	Nc1nc(Nc2ccc(S(N)(=O)=O)cc2)sc1-c1nc(-c2cc(-c3ccc(Cl)c(Cl)c3)no2)cs1	–
–	–	–	–	–	Nc1nc(Nc2ccc(S(N)(=O)=O)cc2)sc1-c1nc(C(=O)Nc2ccccc2)cs1 [N(4), 4′-Amino-2′-(4-sulfamoyl-phenylamino)-[2,5′]bithiazolyl-4 carboxylic acid phenylamide]	Ki (CDK2/Cyclin A complex; Table 3): 158 nM; Ki (CDK4/Cyclin D3 complex; Table 3): 480 nM
–	–	–	–	8800	Nc1nc(N)c(-c2nc(C(=O)c3ccccc3)cs2)s1 [E(4), (2′,4′-Diamino-[2,5′]bithiazolyl-4-yl)-phenyl-methanone]	Ki (CDK4/Cyclin D3 complex; Table 2): 21000 nM
–	–	–	–	200	Nc1csc(-c2sc(Nc3ccc(S(N)(=O)=O)cc3)nc2N)n1 [H(6), 4-(4,4′-Diamino-[2,5′]bithiazolyl-2′-ylamino)-benzenesulfonamide]	Ki (CDK4/Cyclin D3 complex; Table 2): 1200 nM
–	–	–	–	18000	Nc1nc(Nc2ccc(S(N)(=O)=O)cc2)sc1-c1nccn1Cc1ccc(Cl)cc1 [G(8), 4-{4-Amino-5-[1-(4-chloro-benzyl)-1H-imidazol-2-yl]-thiazol-2-ylamino}-benzenesulfonamide]	inhibition at 100 µM (CDK4/Cyclin D3 complex; Table 2, at 100 (printed 100 or 100 μM)): 31%
–	–	–	–	29000	CN(C)CCNS(=O)(=O)c1ccc(Nc2nc(N)c(-c3nc(C(=O)c4ccccc4)cs3)s2)cc1 [A(71), 4-(4′-Amino-4-benzoyl-[2,5′]bithiazolyl-2′-ylamino)-N-(2-dimethylamino-ethyl)-benzenesulfonamide]	Ki (CDK4/Cyclin D3 complex; Table 2): 190000 nM
–	–	–	–	10400	Nc1nc(Nc2ccc(S(N)(=O)=O)cc2)sc1-c1nc(O)c(-c2ccc(O)cc2)s1 [H(2), 4-[4′-Amino-4-hydroxy-5-(4-hydroxy-phenyl)-[2,5′]bithiazolyl-2′-yl-amino]-benzenesulfonamide]	Ki (CDK4/Cyclin D3 complex; Table 2): 11000 nM
–	–	–	–	160	Nc1cccc(C(=O)c2csc(-c3sc(Nc4ccc(S(N)(=O)=O)cc4)nc3N)n2)c1 [A(72), 4-[4-Amino-4-(3-amino-benzoyl)-[2,5′]bithiazoyl-2′-ylamino]-benzenesulfonamide]	inhibition at 5 µM (CDK4/Cyclin D3 complex; Table 2): 48%
–	–	–	–	2700	Nc1cccc(-c2csc(-c3sc(Nc4ccc(S(N)(=O)=O)cc4)nc3N)n2)c1 [C(3)]	Ki (CDK4/Cyclin D3 complex; Table 2): 4600 nM
–	-9.9	-7.2	10.8	–	CCCCCc1ccc(-c2csc(-c3sc(Nc4ccc(S(N)(=O)=O)cc4)nc3N)n2)cc1	–
–	–	–	–	2600	Nc1nc(Nc2ccc(S(N)(=O)=O)cc2)sc1-c1nc(O)c(-c2ccccc2O)s1 [H(4), 4-[4′-Amino-4-hydroxy-5-(2-hydroxy-phenyl)-[2,5′]bithiazoly-2′-ylamino]-benzenesulfonamide]	Ki (CDK4/Cyclin D3 complex; Table 2): 2100 nM
–	–	–	–	–	CN(C)CCNC(=O)c1csc(-c2sc(Nc3ccc(S(N)(=O)=O)cc3)nc2N)n1 [N(2), 4-Amino-2′-(4-sulfamoyl-phenylamino)-[2,5′]-bithiazoyl-4-carboxylic acid (2-dimethylamino-ethyl)-amide]	Ki (CDK2/Cyclin A complex; Table 3): 120 nM; Ki (CDK4/Cyclin D3 complex; Table 3): 1300 nM
–	–	–	–	–	CC(=O)Nc1nc(N)c(-c2nc(C(=O)c3ccccc3)cs2)s1 [F(16), N-(4′-Amino-4-benzoyl-[2,5′]bithiazolyl-2′-yl)-acetamide]	Ki (CDK2/Cyclin A complex; Table 3): 480 nM; inhibition at 5 µM (CDK4/Cyclin D3 complex; Table 3): 35%
